From paper PMC1458349, “Evaluation of high-dose daptomycin for therapy of experimental Staphylococcus aureus foreign body infection” (BMC Infectious Diseases, 2006)
In brackets after ≈: the same amount, converted by molar mass. Several values for one entry are separate records, joined by “and”; a condition that tells them apart may be missing. Equal values may be shown once. Read-outs that look alike come from different tables or passages of the source.

Tests used:
[1] = system: methicillin-susceptible S. aureus (MSSA) strain I20; experiment: MIC, standard tube macrodilution (CLSI); type: cell-based; settings: Staphylococcus aureus
Protocol: The methicillin-susceptible S. aureus (MSSA) strain I20 is a previously described clinical isolate from catheter-related sepsis, which is highly virulent in the rat model of chronic S. aureus tissue cage infection. Strain I20 is uniformly susceptible to all antibiotics except penicillin.
The MICs of oxacillin and vancomycin for strain I20 were determined in cation-adjusted Mueller-Hinton broth (CAMHB) containing 20-25 mg/L Ca^2+ and 10-12.5 mg/L Mg^2+ by the standard tube macrodilution method with an average inoculum of 10^6 CFU/mL as described by the Clinical Laboratory Standards Institute (CLSI). For daptomycin MIC, CAMHB was supplemented with additional calcium to a physiological concentration of 50 mg/L Ca^2+ (CSMHB).
Each MIC and MBC determination was performed three times and the modal values are presented. In additional control experiments, MICs and MBCs were performed in CAMHB supplemented with 50% TCF.

[2] = system: methicillin-susceptible S. aureus (MSSA) strain I20; experiment: microbe, parasite or virus in culture; type: cell-based, Staphylococcus aureus
Protocol: To screen for the possible carryover effects of each antibiotic during the MBC determinations, 0.1-mL portions were taken from all tubes with no visible growth. These were subcultured, either undiluted or diluted 10-fold in saline, on Mueller-Hinton agar (MHA) for 36 h at 37°C. The MBC was defined as the lowest concentration that killed 99.9% of the original inoculum. Each MIC and MBC determination was performed three times and the modal values are presented. In additional control experiments, MICs and MBCs were performed in CAMHB supplemented with 50% TCF.

MSSA strain I20 [3] = experiment: Killing kinetic (time-kill) studies; type: cell-based, Staphylococcus aureus; settings: 8 mg/L in CAMHB; 10^6 CFU exponential-phase; 37°C; one representative of three experiments
Protocol: 0.1-mL portions containing 10^6 CFU of strain I20 (obtained from exponential-phase cultures) were added to sterile plastic tubes containing 1 mL of either CSMHB containing 8 mg/L of daptomycin, or CAMHB containing 8 mg/L of oxacillin or vancomycin, in a shaking waterbath at 37°C. The number of viable organisms was determined by subculturing 50 μL of 10-fold diluted portions on MHA after 0, 2, 4, 6, and 24 h of incubation. Colonies were enumerated with a laser colony counter (Spiral System) after 48 h of incubation at 37°C. The detection limit was 2 log10 CFU/mL. […] Each killing kinetic experiment was repeated three times and results from one representative experiment are presented.

MSSA strain I20 [4] = type: in vivo, Staphylococcus aureus; settings: Wistar rats, i.p. twice daily for 7 days: daptomycin 30 mg/kg, oxacillin 200 mg/kg, vancomycin 50 mg/kg, mean ± SEM, n = 18-19 cages; for average counts in tissue cages at the end of the 7-day therapy: TCF cultured 12 h after last dose; for reduction in bacterial counts in TCF (delta log10 CFU/mL, day 1 to day 8): P < 0.001 vs untreated
Protocol: All animal studies of the daptomycin no 1-study were performed in 1991. These animal studies followed ethical guidelines of that time period and received legal approval from the Veterinary Office of the State of Geneva. Subcutaneous surgical implantation of four tissue cages per animal was performed as described by using Wistar rats that were anaesthetised with an intraperitoneal (i.p.) injection of a mixture of ketamine (90 mg/kg) and xylazine (5 mg/kg). At 3 weeks post-implantation, TCF was aspirated and checked for sterility. To establish a chronic S. aureus infection, tissue cages were inoculated with 0.1 mL of saline containing 0.2 × 10^6 to 2 × 10^6 CFU of a washed overnight culture of strain I20 in CAMHB. Three weeks later, all tissue cages containing more than 10^5 CFU/mL of TCF were included in the therapeutic protocols.
Rats infected with strain I20 were randomised to receive (by the i.p. route for 7 days) twice-daily regimens of either daptomycin (30 mg/kg), oxacillin (200 mg/kg), or vancomycin (50 mg/kg), or were left untreated. At 12 h after the last injection of antibiotic, quantitative cultures of 10-fold serially diluted TCF were performed on MHA. To optimise the yield of viable bacteria, TCF were briefly sonicated (60 W, 1 min) to disrupt the biofilm and phagocytic cells before the serial dilutions and plating. Plates were incubated for 24-48 h at 37°C. The detection limit was one colony equivalent to 2 log10 CFU/mL of TCF. The differences in CFU counts between day 1 and day 8 were determined and expressed as delta log10CFU/mL. For each treatment group, results were expressed as means ± standard errors of the means (SEM). Comparison of bacterial counts in the different groups was performed by ANOVA and Newman-Keuls multiple comparisons procedures using Microsoft Excel® 2000 software. Data were considered significant when P was < 0.05 by using two-tailed significance levels.

[5] = rats, cited from earlier work
[6] = Screening of side effects: serum liver, kidney and muscle markers; type: in vivo, rat
Protocol: To check for potential side effects of the twice-daily 30 mg/kg daptomycin regimen, serum samples of the daptomycin-treated and control rats were collected at day 8 for determination of liver, kidney, and muscle enzyme markers, namely aspartate aminotransferase (ASAT) and alanine aminotransferase (ALAT) activities, serum creatinine, and creatine kinase, respectively, using standard analytical methods.

in vivo [7] = settings: rat, plasma, ip, 30 mg/kg
Protocol: (§1) For each time point, the mean (± SEM) daptomycin levels in plasma from four animals was determined.

in vivo [8] = settings: Wistar, rat, tissue cage fluid (TCF), ip, 30 mg/kg
Protocol: as §1

[9] = rats, 30 mg/kg once daily, cited from earlier work
[10] = rat, in vivo, cited from earlier work
[11] = Pharmacokinetic levels in rat plasma; settings: 30 mg/kg i.p. twice daily, day 4
Protocol: as §1

[12] = Pharmacokinetic levels in rat tissue cage fluid (TCF)
Protocol: as §1

[13] = Staphylococcus aureus, MSSA, CAMHB, lowest concentration killing 99.9% of inoculum, subculture on MHA 36 h 37°C, modal value of 3, read-out: MBC
[14] = twice-daily oxacillin 200 mg/kg or vancomycin 50 mg/kg

## CN[C@H](CC(C)C)C(=O)N[C@H]1C(=O)N[C@@H](CC(N)=O)C(=O)N[C@H]2C(=O)N[C@H]3C(=O)N[C@H](C(=O)N[C@H](C(=O)O)c4cc(O)cc(O)c4-c4cc3ccc4O)[C@H](O)c3ccc(c(Cl)c3)Oc3cc2cc(c3O[C@@H]2O[C@H](CO)[C@@H](O)[C@H](O)[C@H]2O[C@H]2C[C@](C)(N)[C@H](O)[C@H](C)O2)Oc2ccc(cc2Cl)[C@H]1O [vancomycin]
[1]
  MIC: 1 µg/mL (≈ 0.69 µM)
[2]; [13]
  MBC: 2 µg/mL (≈ 1.38 µM)
MSSA strain I20 [3]
  time after which reduction in viable counts exceeded 3 log10 CFU/mL: 4 h
MSSA strain I20 [4]
  average counts in tissue cages at the end of the 7-day therapy: 5.49 ± 0.21 log10 CFU/mL
  reduction in bacterial counts in TCF (delta log10 CFU/mL, day 1 to day 8): 0.96 log10 CFU/mL and 0.96 ± 0.24 log10 CFU/mL
[5]; [14]
  peak TCF level: 12 mg/L
  trough TCF level: 2 mg/L

## Cc1onc(-c2ccccc2)c1C(=O)N[C@@H]1C(=O)N2[C@@H]1SC(C)(C)[C@@H]2C(=O)O [oxacillin]
[1]; CAMHB (20-25 mg/L Ca2+, 10-12.5 mg/L Mg2+), tube macrodilution, inoculum 10^6 CFU/mL, modal value of 3 determinations, read-out: MIC
  MIC: 0.5 µg/mL (≈ 1.25 µM)
[2]; [13]
  MBC: 1 µg/mL (≈ 2.49 µM)
MSSA strain I20 [3]
  time after which reduction in viable counts exceeded 3 log10 CFU/mL: 4 h
MSSA strain I20 [4]
  average counts in tissue cages at the end of the 7-day therapy: 5.90 ± 0.25 log10 CFU/mL
  reduction in bacterial counts in TCF (delta log10 CFU/mL, day 1 to day 8): 0.92 log10 CFU/mL and 0.92 ± 0.21 log10 CFU/mL
[5]; [14]
  trough TCF level: 5.7 mg/L

## CCCCCCCCCC(=O)N[C@@H](Cc1c[nH]c2ccccc12)C(=O)N[C@H](CC(N)=O)C(=O)N[C@@H](CC(=O)O)C(=O)N[C@@H]1C(=O)NCC(=O)N[C@@H](CCCN)C(=O)N[C@@H](CC(=O)O)C(=O)N[C@H](C)C(=O)N[C@@H](CC(=O)O)C(=O)NCC(=O)N[C@H](CO)C(=O)N[C@@H]([C@H](C)CC(=O)O)C(=O)N[C@@H](CC(=O)c2ccccc2N)C(=O)O[C@@H]1C [daptomycin]
[2]; methicillin-susceptible strain I20, 36 h
  MBC: 1 µg/mL (≈ 0.617 µM)
[6]; rats receiving twice-daily doses (30 mg/kg)
  exterior signs of toxicity: No exterior sign of toxicity
[6]; rats treated with high-dose daptomycin (30 mg/kg twice daily, 7 days)
  liver toxicity (overall assessment): only mild liver toxicity
[6]; rats, 30 mg/kg i.p. twice daily for 7 days, serum at day 8, n = 5, control 41 ± 11
  ALAT (alanine aminotransferase) activity in serum: 46 ± 9 IU/L
[6]; rats, 30 mg/kg i.p. twice daily for 7 days, serum at day 8, n = 5, control 50 ± 5
  serum creatinine: 53 ± 5 μM/L
[6]; rats, 30 mg/kg i.p. twice daily for 7 days, serum at day 8, n = 5, control 146 ± 36
  ASAT (aspartate aminotransferase) activity in serum: 216 ± 24 IU/L
[6]; rats, 30 mg/kg i.p. twice daily for 7 days, serum at day 8, n = 5, control 1349 ± 820
  creatine kinase in serum: 1393 ± 886 IU/L
In vivo [7]
  level at 12 h: 9100 ng/mL
In vivo [8]
  level at 4 day: 21000 ng/mL
[9]
  plasma AUC0-24h: 558 µg·h/mL
[9]; day 4, HPLC
  peak plasma level: 141 mg/L
  trough plasma level: 0 mg/L
[9]; day 4
  plasma level at 12 h: 1000 ng/mL
[5]; 30 mg/kg daily regimen (printed as daptomycin no 1-study)
  TCF AUC0-24h as percentage of plasma AUC0-24h: 35%
[5]; 30 mg/kg once daily
  TCF AUC0-24h: 196 µg·h/mL
  TCF level at 12 h (intermediate value): 10.0 mg/L
  mean peak level in TCF: 11.8 mg/L
  mean trough level in TCF: 3.4 mg/L
[10]; 25 mg/kg
  plasma AUC0-24h: 278 µg·h/mL
[10]; 40 mg/kg
  plasma AUC0-24h: 605 µg·h/mL
[11]; rats, AUC0-12 by linear trapezoidal rule multiplied by two
  plasma AUC0-24h: 1667 µg·h/mL
[11]; uninfected rats, at 1 h, microbiological assay, mean of four animals
  mean peak plasma level: 173 mg/L
[12]; rats, 30 mg/kg i.p. twice daily, day 4, AUC0-12 by linear trapezoidal rule multiplied by two
  TCF AUC0-24h: 1073 µg·h/mL
[12]; rats, 30 mg/kg twice-daily regimen (printed as daptomycin no 2-study)
  TCF AUC0-24h as percentage of plasma AUC0-24h: 64%
[12]; uninfected rats, 30 mg/kg i.p. twice daily, day 4, microbiological assay, mean of six animals
  mean peak level in TCF: 66 mg/L
